Assay results reported in ChEMBL document CHEMBL4813951 (Eur J Med Chem, 2021).
Active and inactive are the calls of the source. The rule behind the calls is not given here.

Columns and labels:
Histamine H2 receptor [1] = target: T1, Histamine H2 receptor (Homo sapiens, UniProt P25021); conditions: Sf9, Membrane, filed as agonist, time 90.0 min
Histamine H4 receptor = Histamine H4 receptor (Homo sapiens, UniProt Q9H3N8)
Histamine H2 receptor [2] = target: T1, Histamine H2 receptor; assay: Displacement of [3H]UR-DE257 from human histamine H2 receptor expressed in sf9 insect cell membranes co-expressing GSalphaS incubated for 60 mins by microbeta scintillation counting method; design: species or system Membrane
[3] = Dissociation constant, pKa of compound in aqueous solution in presence of HCL; type: physicochemical; conditions: aqueous solution with HCl
[4] = Dissociation constant, pKa of compound in NaOH; type: physicochemical; conditions: NaOH solution
[5] = Dissociation constant, pKa of compound in aqueous solution; type: physicochemical
Histamine H2 receptor [6] = target: T1, Histamine H2 receptor; assay: Agonist activity at human histamine H2 receptor expressed in sf9 insect cell membranes co-exprssing GsalphaS assessed as intrinsic activity at >=30 uM incubated for 90 mins [35S]GTPgammaS binding based microbeta scintillation counting analysis relative to histamine; type: functional; conditions: Membrane, filed as agonist, dose microM >=30, time 90.0 min
Histamine H2 receptor [7] = target: T1, Histamine H2 receptor; assay: Agonist activity at human histamine receptor expressed in sf9 insect cell membranes co-exprssing GsalphaS incubated for 90 mins [35S]GTPgammaS binding based microbeta scintillation counting analysis; type: functional, Membrane
Histamine H2 receptor [8] = target: T1, Histamine H2 receptor; assay: Agonist activity at human histamine H2 receptor expressed in HEK293T cells co-expressing ELucC assessed as intrinsic activity at >= 30 uM by beta arrestin2 recruitment assay relative to histamine; type: functional, cell-based; conditions: filed as agonist, dose microM >=30
Histamine H3 receptor = Histamine H3 receptor (Homo sapiens, UniProt Q9Y5N1); assay: Displacement of [3H]UR-P129 from human histamine H3 receptor expressed in sf9 insect cell membranes co-expressing Galphai2/Gbeta1gamma2 incubated for 60 mins by microbeta scintillation counting method; design: species or system Membrane
Histamine H1 receptor = Histamine H1 receptor (Homo sapiens, UniProt P35367); assay: Displacement of [3H]mepyramine from human histamine H1 receptor expressed in sf9 insect cell membranes co-expressing RGS4 incubated for 60 mins by microbeta scintillation counting method; design: species or system Membrane
Histamine H2 receptor [9] = target: T1, Histamine H2 receptor; assay: Agonist activity at human histamine H2 receptor expressed in HEK293T cells co-expressing ELucC by beta arrestin2 recruitment assay; type: functional, cell-based
D(3) dopamine receptor [10] = target: T2, D(3) dopamine receptor (Homo sapiens, UniProt P35462); assay: Displacement of [3H]N-methylspiperone from human D3 receptor expressed in HEK293T cells co-expressing CRE-Luc incubated for 60 mins by microbeta scintillation counting method; type: cell-based
D(2) dopamine receptor [11] = target: T3, D(2) dopamine receptor (Homo sapiens, UniProt P14416); assay: Displacement of [3H]N-methylspiperone from human D2L receptor expressed in HEK293T cells co-expressing CRE-Luc incubated for 60 mins by microbeta scintillation counting method; type: cell-based
D(3) dopamine receptor [12] = target: T2, D(3) dopamine receptor; assay: Agonist activity at […] expressed in HEK293T cells co-expressing ELucC by beta arrestin2 recruitment assay; type: functional, cell-based
D(2) dopamine receptor [13] = target: T3, D(2) dopamine receptor; type: functional, cell-based, HEK293T
[14] = target: Histamine H2 receptor (Cavia porcellus) (UniProt P47747); assay: (§1) Agonist activity at guinea pig right atrium histamine H2 receptor assessed as increase in heart rate incubated for 30 mins in presence of cimetidine; type: functional, tissue-based; conditions: Right cardiac atrium
[15] = target: Histamine H2 receptor (Cavia porcellus) (UniProt P47747); assay: Agonist activity at guinea pig right atrium histamine H2 receptor assessed as intrinsic activity incubated for 30 mins in presence of cimetidine relative to histamine; type: functional, tissue-based; conditions: Right cardiac atrium, filed as agonist
Histamine H2 receptor [16] = target: Histamine H2 receptor (Cavia porcellus, UniProt P47747); assay: as §1; type: functional, tissue-based, Right cardiac atrium
[17] = Dissociation constant, pKa of compound in aqueous solution in presence of EtOH by spectrometric method; conditions: aqueous solution with EtOH
[18] = Dissociation constant, pKa1 of compound in HCL or HCL salt; type: physicochemical; conditions: HCl or HCl salt solution
[19] = Dissociation constant, pKa2 of compound in HCL or HCL salt; type: physicochemical; conditions: HCl or HCl salt solution

T3 sequence (P14416 whole entry): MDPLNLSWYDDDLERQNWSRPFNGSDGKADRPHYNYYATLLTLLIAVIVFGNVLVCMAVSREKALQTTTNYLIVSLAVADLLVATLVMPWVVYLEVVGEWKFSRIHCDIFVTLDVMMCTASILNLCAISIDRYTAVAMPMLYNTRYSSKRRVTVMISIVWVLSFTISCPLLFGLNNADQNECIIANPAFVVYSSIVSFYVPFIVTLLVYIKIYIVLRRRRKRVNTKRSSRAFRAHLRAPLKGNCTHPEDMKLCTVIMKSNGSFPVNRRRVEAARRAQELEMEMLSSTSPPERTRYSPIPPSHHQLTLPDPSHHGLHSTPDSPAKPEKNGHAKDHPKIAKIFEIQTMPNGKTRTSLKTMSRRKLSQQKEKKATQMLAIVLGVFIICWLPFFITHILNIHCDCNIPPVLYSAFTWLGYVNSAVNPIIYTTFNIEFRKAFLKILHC
T2 sequence (P35462 whole entry): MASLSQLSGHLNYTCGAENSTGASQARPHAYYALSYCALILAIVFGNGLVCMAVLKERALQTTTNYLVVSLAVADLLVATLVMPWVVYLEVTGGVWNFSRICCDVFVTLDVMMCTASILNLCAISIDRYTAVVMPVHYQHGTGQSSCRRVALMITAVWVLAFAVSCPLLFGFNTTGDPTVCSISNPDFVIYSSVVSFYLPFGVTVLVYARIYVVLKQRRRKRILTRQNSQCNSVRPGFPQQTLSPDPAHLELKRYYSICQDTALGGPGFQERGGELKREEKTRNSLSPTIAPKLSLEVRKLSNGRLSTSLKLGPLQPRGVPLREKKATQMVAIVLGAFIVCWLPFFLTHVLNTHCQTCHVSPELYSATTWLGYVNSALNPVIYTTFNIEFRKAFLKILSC
Histamine H4 receptor, sequence (Q9H3N8 whole entry): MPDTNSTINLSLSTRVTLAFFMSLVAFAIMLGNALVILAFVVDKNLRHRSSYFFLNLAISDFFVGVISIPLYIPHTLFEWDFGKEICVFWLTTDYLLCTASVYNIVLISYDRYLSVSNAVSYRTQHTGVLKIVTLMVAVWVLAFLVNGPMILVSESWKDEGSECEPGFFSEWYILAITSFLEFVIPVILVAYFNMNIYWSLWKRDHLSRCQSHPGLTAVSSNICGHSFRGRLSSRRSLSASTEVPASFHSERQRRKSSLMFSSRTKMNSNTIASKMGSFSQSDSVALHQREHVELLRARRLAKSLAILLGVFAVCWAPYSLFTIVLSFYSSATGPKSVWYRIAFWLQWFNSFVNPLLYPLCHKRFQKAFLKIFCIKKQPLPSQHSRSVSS
T1 sequence (P25021 whole entry): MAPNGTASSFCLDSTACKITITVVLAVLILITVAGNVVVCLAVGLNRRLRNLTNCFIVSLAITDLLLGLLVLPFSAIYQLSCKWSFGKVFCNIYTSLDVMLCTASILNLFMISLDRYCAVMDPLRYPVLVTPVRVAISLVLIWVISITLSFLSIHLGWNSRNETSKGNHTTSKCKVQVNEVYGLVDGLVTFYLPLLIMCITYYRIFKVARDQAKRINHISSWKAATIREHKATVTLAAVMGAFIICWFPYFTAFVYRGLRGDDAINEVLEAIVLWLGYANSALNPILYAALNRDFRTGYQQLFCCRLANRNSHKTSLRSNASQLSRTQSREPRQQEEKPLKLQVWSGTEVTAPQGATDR
Histamine H1 receptor, sequence (P35367 whole entry): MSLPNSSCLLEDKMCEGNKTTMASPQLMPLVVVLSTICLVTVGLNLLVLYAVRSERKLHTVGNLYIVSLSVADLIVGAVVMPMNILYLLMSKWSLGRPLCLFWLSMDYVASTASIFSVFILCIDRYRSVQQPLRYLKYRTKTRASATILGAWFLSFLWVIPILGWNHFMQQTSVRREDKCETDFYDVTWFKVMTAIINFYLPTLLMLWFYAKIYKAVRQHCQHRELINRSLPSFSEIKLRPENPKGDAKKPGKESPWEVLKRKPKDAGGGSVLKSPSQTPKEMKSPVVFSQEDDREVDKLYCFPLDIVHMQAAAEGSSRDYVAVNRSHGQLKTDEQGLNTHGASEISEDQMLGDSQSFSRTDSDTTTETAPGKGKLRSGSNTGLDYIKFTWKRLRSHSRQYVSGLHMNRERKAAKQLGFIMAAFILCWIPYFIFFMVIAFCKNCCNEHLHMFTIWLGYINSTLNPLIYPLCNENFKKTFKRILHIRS
Histamine H3 receptor, sequence (Q9Y5N1 whole entry): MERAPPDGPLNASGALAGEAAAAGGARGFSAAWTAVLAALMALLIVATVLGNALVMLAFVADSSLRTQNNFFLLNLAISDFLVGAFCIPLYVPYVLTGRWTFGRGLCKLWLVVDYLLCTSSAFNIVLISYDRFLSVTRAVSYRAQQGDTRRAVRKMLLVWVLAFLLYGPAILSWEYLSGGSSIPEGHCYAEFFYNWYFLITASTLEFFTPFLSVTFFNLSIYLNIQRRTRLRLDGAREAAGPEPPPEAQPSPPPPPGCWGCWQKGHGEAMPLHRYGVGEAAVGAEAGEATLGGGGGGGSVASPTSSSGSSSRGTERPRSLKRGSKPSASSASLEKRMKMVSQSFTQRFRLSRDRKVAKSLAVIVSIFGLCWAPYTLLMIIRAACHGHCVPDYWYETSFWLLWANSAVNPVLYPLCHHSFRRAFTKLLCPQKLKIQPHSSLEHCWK
Histamine H2 receptor (Cavia porcellus), sequence (P47747 whole entry): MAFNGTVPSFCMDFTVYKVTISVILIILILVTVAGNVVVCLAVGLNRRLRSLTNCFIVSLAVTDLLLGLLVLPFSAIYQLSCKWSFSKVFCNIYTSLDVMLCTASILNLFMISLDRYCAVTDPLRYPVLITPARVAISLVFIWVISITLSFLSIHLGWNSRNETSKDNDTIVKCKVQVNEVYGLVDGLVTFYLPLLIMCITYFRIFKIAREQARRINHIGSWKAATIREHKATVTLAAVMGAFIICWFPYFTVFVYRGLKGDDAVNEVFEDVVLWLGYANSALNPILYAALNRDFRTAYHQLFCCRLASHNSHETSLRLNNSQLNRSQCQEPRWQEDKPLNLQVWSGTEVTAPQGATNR
Histamine H2 receptor (Cavia porcellus, UniProt P47747), sequence (P47747 whole entry): as above

Row | SMILES | Ki (Histamine H4 receptor) | Ki (Histamine H2 receptor [2]) | Intrinsic activity (Histamine H2 receptor [6]) | EC50 (Histamine H2 receptor [7]) | Ki (Histamine H3 receptor) | Ki (Histamine H1 receptor) | EC50 (Histamine H2 receptor [9]) | Ki (D(3) dopamine receptor [10]) | further results
1 | N/C(=N\C(=O)Nc1ccccc1)Nc1cccc(-c2csc(N)n2)c1 | 64600 nM | 372000 nM |  |  |  |  |  |  | pKb (Histamine H2 receptor [1]): 4.76
2 | Cc1csc(N)n1 |  |  |  |  |  |  |  |  | pKa [3]: 4.64; pKa [4]: 5.77; pKa [5]: 5.95
3 | CCCNC(=O)/N=C(\N)NCC |  |  |  |  |  |  |  |  | pKa [4]: 8.31
4 | N/C(=N\C(=O)NC1CCCCC1)Nc1cccc(-c2csc(N)n2)c1 | 13500 nM | 4470 nM |  |  |  |  |  |  | pKb (Histamine H2 receptor [1]): 5.4
5 | Cc1nc(N)sc1CCCN/C(N)=N/C(=O)NCC(C)c1ccc(C(C)C)cc1 (stereo not given) | 2630 nM | 148 nM | 0.59 | 34.7 nM | 7940 nM | 4900 nM | 282 nM |  | Intrinsic activity (Histamine H2 receptor [8]): 0.25
6 | Cc1nc(N)sc1CCCN/C(N)=N/C(=O)NCC(c1ccccc1)C(C)C (stereo not given) | 5890 nM | 102 nM | 0.52 | 30.9 nM | 11700 nM | 5890 nM | 158 nM |  | Intrinsic activity (Histamine H2 receptor [8]): 0.11
7 | CCCCCCNC(=O)/N=C(\N)Nc1cccc(-c2csc(N)n2)c1 | 9550 nM | 692 nM |  |  | 11000 nM |  |  | 1290 nM | pKb (Histamine H2 receptor [1]): 6.14; Ki (D(2) dopamine receptor [11]): 2510 nM
8 | Cc1nc(N)sc1CCCN/C(N)=N/C(=O)NCC(C)CCc1ccccc1 (stereo not given) | 3240 nM | 63.1 nM | 0.69 | 29.5 nM | 9120 nM | 1350 nM | 355 nM | 45.7 nM | Intrinsic activity (Histamine H2 receptor [8]): 0.2; EC50 (D(3) dopamine receptor [12]): 891 nM; EC50 (D(2) dopamine receptor [13]): 5370 nM; Ki (D(2) dopamine receptor [11]): 355 nM
9 | Cc1nc(N)sc1CCCN/C(N)=N/C(=S)NCC(c1ccccc1)c1ccccc1 | 21400 nM | 1450 nM |  |  | 46800 nM | 44700 nM |  |  | pEC50 [14]: inactive
10 | CCCNC(=O)/N=C(\N)Nc1cccc(-c2csc(N)n2)c1 | > 100000 nM | 5250 nM |  |  |  |  |  |  | pKb (Histamine H2 receptor [1]): 4.91
11 | CCCCCCNC(=O)/N=C(\N)NCCCc1sc(N)nc1C | 8130 nM | 28.8 nM | 0.6 | 38.9 nM | 5620 nM | 7760 nM | 85.1 nM | 14.1 nM | Intrinsic activity [15]: 0.95; EC50 (D(3) dopamine receptor [12]): 23.4 nM; EC50 (Histamine H2 receptor [16]): 15.8 nM; EC50 (D(2) dopamine receptor [13]): 1740 nM; Ki (D(2) dopamine receptor [11]): 562 nM
12 | C[C@@H](NC(=O)/N=C(\N)NCCCc1ccccc1)c1ccccc1 |  |  |  |  |  |  |  |  | pKa [4]: 7.96
13 | Cc1nc(N)sc1C |  |  |  |  |  |  |  |  | pKa [17]: 6.29; pKa [4]: 6.28
14 | Cc1nc(N)sc1CCCN/C(N)=N/C(=O)NCC(C)C1CCCCC1 (stereo not given) | 1910 nM | 39.8 nM | 0.65 | 21.9 nM | 10000 nM | 2340 nM | 224 nM | 43.7 nM | Intrinsic activity (Histamine H2 receptor [8]): 0.4; EC50 (D(3) dopamine receptor [12]): 263 nM; EC50 (D(2) dopamine receptor [13]): 3240 nM; Ki (D(2) dopamine receptor [11]): 263 nM
15 | Cc1nc(N)sc1CCCN/C(N)=N/C(=O)N[C@H](C)c1ccccc1 | 13500 nM | 17.8 nM |  |  | 43700 nM | 8710 nM | 45.7 nM | 6.17 nM | EC50 (D(3) dopamine receptor [12]): 15.5 nM; pKa [18]: 4.68; EC50 (Histamine H2 receptor [16]): 7.59 nM; pKa [19]: 7.47
